Where two headings read alike, the source gives them in different places. Where a SMILES comes first, the peptide text is derived from it. The star is where a group is joined. MeOSuc = COC(=O)CCC(=O)*; CH2Cl = ClC*
Tests used:
[1] = target: T1, Elastase from porcine pancreas (Sus scrofa, UniProt P00772); experiment: Elastase inhibition assay, spectrophotometric (N-succinyl-Ala-Ala-Ala-p-nitroanilide, 405 nm); type: biochemical
T1 construct: purchased Sigma-Aldrich; host or cells: porcine pancreas (tissue-derived commercial powder)
T1 sequence (P00772 27-266): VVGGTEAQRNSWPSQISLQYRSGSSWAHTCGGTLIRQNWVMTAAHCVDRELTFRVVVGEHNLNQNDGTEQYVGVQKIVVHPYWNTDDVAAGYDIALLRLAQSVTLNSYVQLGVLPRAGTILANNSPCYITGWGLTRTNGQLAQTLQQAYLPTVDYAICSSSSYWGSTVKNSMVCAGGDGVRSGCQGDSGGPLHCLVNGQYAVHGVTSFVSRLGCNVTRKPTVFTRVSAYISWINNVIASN
Procedure: In order to evaluate the effect of these compounds (ILs and IL-APIs), an enzymatic reaction based on the conversion of the substrate N-succinyl-Ala-Ala-Ala-p-nitroaniline to succinyl-Ala-Ala-Ala and p-nitroaniline by the enzyme elastase was performed. The enzyme activity is determined by the formation of p-nitroaniline, the chromogenic compound resulted from the reaction. Substrate degradation was continuously monitored in the spectrophotometer by measuring increasing absorbance at 405 nm.
The EC50 values for each IL were calculated as the inhibitory concentration causing a 50% decrease in Elastase activity. The EC50 values were automatically calculated, using GraphPad prism8 software.
All the reagents (HEPES buffer, N-succinyl-Ala-Ala-Ala p-nitroanilide, Elastase and acetate buffer) were added sequentially in eppendorf, being the final volume equal to 250 µL. So, in each eppendorf it was added 137.5 µL of HEPES buffer, 10 µL of N-succinyl-Ala-Ala-Ala p-nitroanilide substrate, 30 µL of elastase, 70 µL of acetate buffer, 2.5 µL of DMSO. In inhibitory assays was 87.5 µL of HEPES buffer, 10 µL of N-succinyl-Ala-Ala-Ala p-nitroanilide substrate, 30 µL of elastase, 70 µL of acetate buffer, 2.5 µL of DMSO, and 50 µL of IL/IL-APIs.
Next, the eppendorf was placed inside the thermostatic bath at 37 °C for 10 min.
After 10 min, the reaction product was measured in spectrophotometer at 405 nm.
All assays were performed in batch mode. Thus, the different reagents were placed manually in an eppendorf at the desired concentrations and volumes. After, they were placed in a thermostatic bath where the reaction temperature was regulated for the desired period. The succinyl-Ala-Ala-Ala and p-nitroaniline result from the cleavage of the substrate N-succinyl-Ala-Ala-Ala-p-nitroaniline by porcine elastase enzyme. The enzyme activity was determined by monitoring the chromogenic compound, p-nitroaniline, at 405 nm. All results of ILs and IL-APIs were obtained in duplicate.

carboxylesterase = conditions: read-out: EC50 for carboxylesterase; compared with elastase values; cited from earlier work
[2] = IL-APIs, aqueous solutions, 37 °C, 10 min, substrate 100 µM, duplicate, read-out: EC50 (µM) ± SD

Row | Molecule | EC50 [1, 2] [µM] | other results
1 | CC(C)(C)CC(C)(C)c1ccc(OCCOCC[N+](C)(C)Cc2ccccc2)cc1.O=S(=O)([N-]S(=O)(=O)C(F)(F)F)C(F)(F)F [Benzethonium bistriflimide] | > 1000 | 
2 | O=S(=O)(NS(=O)(=O)C(F)(F)F)C(F)(F)F [Lithium bistriflimide] | 209 ± 12 | 
3 | COC(=O)CCC(=O)N[C@@H](C)C(=O)N[C@@H](C)C(=O)N1CCC[C@H]1C(=O)N[C@H](C(=O)CCl)C(C)C [MeOSuc-Ala-Ala-Pro-Val-chloromethylketone, reference compound] (MeOSuc-AAPV-CH2Cl) |  | EC50 ([1]; ILs and positive control, aqueous solutions, 37 °C, 10 min, substrate 100 µM, duplicate, read-out: EC50 (mM) ± SD): 470 ± 50 µM
4 | O=C([O-])c1ccccc1O.[Na+] [Sodium salicylate, reference compound] |  | EC50 ([1]; read-out: EC50 (µM) ± SD): 124 ± 4 µM; EC50 (carboxylesterase): 116.99 ± 0.02 µM
5 | CCCC[P+](C)(CCCC)CCCC [Tributylmethylphosphonium salicylate] | > 200 | 
6 | CCCCC(CC)COC(=O)CC(C(=O)OCC(CC)CCCC)S(=O)(=O)[O-].CCCCCCCCCCCCCC[P+](CCCCCC)(CCCCCC)CCCCCC [Trihexyltetradecylphosphonium docusate] | > 700 | 
7 | CCCCCCCCCCCCCC[P+](CCCCCC)(CCCCCC)CCCCCC [Trihexyltetradecyphosphonium chloride] | > 100 | 
8 | Benzalkonium salicylate | 230 ± 20 | 
9 | Benzethonium docusate | > 200 | 
10 | Benzethonium salicylate | > 500 | 
